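Test compounds were applied to cells in 96-well plates for 48 hours at 5 doses. The concentration for 50% growth inhibition is given as GI50. TGI marks complete inhibition of growth.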

This assay concerns MDA-MB-468 breast. Kind of assay: DTP human tumour cell line panel, 48 h.
The term GI50 denotes the concentration that inhibits growth by half. The TGI is the concentration giving total growth inhibition. Lower therefore signals greater sensitivity of the cells. On to `O=C1NC(=O)/C(=C/C=C/c2ccccc2)S1`, for which the GI50 was 10.9 µM and the TGI is 56 µM.
Consider `COc1ccc(C(=O)c2cc(OC)c(OC)c(OC)c2)cc1OC(C)=O`, for which the GI50 is 0.754 µM.
For the compound `CCSc1oc(-c2ccccc2)nc1[P+](c1ccccc1)(c1ccccc1)c1ccccc1`, the 50% growth inhibitory concentration (GI50) was 0.168 µM and the concentration for total growth inhibition (TGI) was 0.676 µM.
In the same order, the values of `O=C(NCc1cccnc1)/C(=C\c1ccc(Br)cc1)S(=O)(=O)c1ccccc1` are 0.266 µM and 0.933 µM.
Consider `C#CCN1C(=O)/C(=c2\sc3n(c2=O)C2C(NN=3)N(CC)C(=O)N2CC)c2ccccc21` (stereo unspecified), for which the GI50 was 0.331 µM and the concentration for total growth inhibition (TGI) was found to be 3.24 µM.
In the same order, the values of `Cn1nc(C(F)(F)F)c(-c2ccc(Cl)c(C(F)(F)F)c2)c1-c1ccc(OCc2ccc(Cl)cc2)cc1O` are 1.34 µM and 3.65 µM.
In the same order, the values of `CC1(C)N=C(N)N=C(N)N1c1cccc(C#N)c1` are 2.31 µM and greater than 100 µM.
As to `Nc1ccc(-c2nc3ccc4[nH]ncc4c3c3c2CCCC3)cc1F`, the GI50 was 0.126 µM and the TGI stood at 0.625 µM.
For `CC(C)C[C@H](NC(=O)[C@H](CCc1ccccc1)NC(=O)CN1CCOCC1)C(=O)N[C@@H](Cc1ccccc1)C(=O)N[C@@H](CC(C)C)C(=O)[C@@]1(C)CO1`, the concentration for 50% growth inhibition (GI50) was less than 0.0135 µM and the TGI was 0.0362 µM.
On to `CCOC(=O)c1sc(-c2ccc(OS(=O)(=O)c3cccs3)c(C=O)c2)nc1C`, for which the GI50 is 1.31 µM and the TGI was found to be 4.95 µM.
Regarding `CN(C)CCCNc1nn2c(=O)c3ccccc3nc2c2ccccc12`, the GI50 is 6.23 µM and the TGI was 20 µM.
With `Cl.[Pt].[c-]1ccccc1-c1ccccn1.c1ccc(P(c2ccccc2)C([PH+](c2ccccc2)c2ccccc2)[PH+](c2ccccc2)c2ccccc2)cc1`, the GI50 was 0.571 µM and the TGI was determined as 4.21 µM.
As to `O=C(/C=C/c1ccc(C(F)(F)F)cc1)c1ccc(Nc2nc(NCCO)nc(NCCO)n2)cc1`, the GI50 is 2.02 µM and the TGI was found to be 5.07 µM.
On the same counts, the results for `COc1ccc(-c2ccc3c(NC(=O)C4CC4)n[nH]c3n2)cc1` are greater than 25 µM and greater than 25 µM.
Turning to `CCN(CC)CCN1C(=O)c2c(c(C)c3c(oc4cc(O)ccc43)c2C)C1=O`, the GI50 is 1.46 µM and the concentration for total growth inhibition (TGI) stood at 3.01 µM.
Consider `CCCCCCCCCCCCn1c(C)nc2ccccc21`, for which the GI50 is 0.601 µM and the TGI was 19.4 µM.
In the same order, the values of `Nc1ncnc2c1c(C(F)(F)F)cn2[C@@H]1O[C@H](CO)[C@@H](O)[C@H]1O` are 0.242 µM and 2.14 µM.
For `S=c1nc(-c2ccccc2)oc(=NC2CCCCC2)n1C1CCCCC1`, the GI50 is 1.97 µM and the TGI was 4.83 µM.
As to `COc1ccc(/C(C)=C(\c2ccc(Cl)cc2)c2ccc(OCCN3CCCC3)cc2)cc1`, the GI50 is 4.03 µM and the TGI worked out at 8.85 µM.
On the same counts, the results for `C/C(=N\NC(N)=O)C(CN1CCCCC1)C(c1ccccc1)c1c(O)c2ccccc2oc1=O` (stereo unspecified) are greater than 100 µM and greater than 100 µM.
Consider `COc1ccc(-c2nn(-c3cccc(Cl)c3)cc2C=C(C#N)C#N)cc1`, for which the GI50 is 1.67 µM and the TGI was determined as 4.96 µM.
For `COc1ccc(-c2ccc(/C=C/C(=O)NO)cc2)cc1`, the GI50 is 0.463 µM and the TGI stood at 2.62 µM.
`COc1ccc(SC2c3cc(OC)c(OC)cc3Oc3nc(N)c(C#N)c(N)c32)cc1` (stereo unspecified): the GI50 is 0.32 µM and the TGI turned out to be 1.53 µM.
`COc1ccc(/C=C/c2c(C(=O)/C=C/c3ccc(Cl)cc3)c(C)nc3ccccc23)cc1`: the GI50 is 1.79 µM and the TGI was 3.54 µM.
In the case of `CCN1CCN(c2nc(NNC(=O)Cc3ccccc3)nc(N3CCN(C(c4ccccc4)c4ccccc4)CC3)n2)CC1`, the GI50 was 1.95 µM and the TGI amounted to 4.52 µM.
In the case of `N#Cc1c(NC(=O)c2ccccc2)sc2c1CCC(=O)C2`, the GI50 is 2.19 µM and the TGI was 6.94 µM.

For the origin of these results see PubChem BioAssay (NCI).
